Measurements from US20110184018A1, “METHOD FOR TREATING PERIPHERAL NEUROPATHIC PAIN” (LOHOCLA RESEARCH CORPORATION, priority 2005, published 2011).
pIC50, pKd, pKi: −log10 of the molar value. Read-outs that look alike come from different tables or passages of the source.

Tests used:
[1] = target: T1, glycine recognition site of the NMDA receptor complex (Rattus norvegicus, UniProt P35439); experiment: [3H]5,7-DCKA binding assay; settings: rat cortical membranes; none = no displacement at 100 μM
T1 construct: The telencephalon (cerebral cortex, hippocampus, and striatum) was dissected and homogenized; from tissue; host or cells: rat telencephalon membranes (cerebral cortex, hippocampus, striatum), Triton X-100 treated
Description: General receptor-binding procedures. Male Sprague-Dawley rats were decapitated and their brains removed rapidly. The telencephalon (cerebral cortex, hippocampus, and striatum) was dissected and homogenized in 20 volumes of ice-cold 0.32 M sucrose, 20 mM HEPES-KOH (pH 7.2 at room temperature) containing protease inhibitors ([…], 5 mg/mL antipain, 20 mg/mL soybean trypsin inhibitor, 500 μM benzamidine, […] aprotinin, and 500 μM phenylmethylsulfonyl fluoride) with a motor driven glass-TEFLON® fluorocarbon homogenizer (8-10 strokes at setting 1). The homogenate was centrifuged at 800 g for 10 minutes. The pellet was discarded and the supernatant was centrifuged at 20,000 g for 20 minutes. The resulting pellet was resuspended in 20 volumes of distilled water containing 500 μM benzamidine and centrifuged for 20 minutes at 7500 g. Then the supernatant and buffy coat were centrifuged three times (51,500 g for 20 minutes) in the presence of distilled water containing 500 μM benzamidine. All centrifugation steps were carried out at 4° C. The final pellet was frozen rapidly at −80° C.
On the day of the assay, the pelleted membranes were resuspended in 20 volumes of 50 mM HEPES-KOH buffer, pH 7.4, and incubated for 20 minutes at 37° C. followed by centrifugation (51,500 g for 20 minutes). Membranes were then resuspended in 50 mM HEPES-KOH buffer (pH 7.8) containing 0.08% Triton X-100. After stirring for 30 minutes at 4° C., the membranes were pelleted by centrifugation (100,000 g for 20 minutes). The membranes were then washed twice by resuspension in the buffer appropriate for the binding assay and centrifugation (100,000 g for 20 minutes). The final pellet was suspended in assay buffer. The amount of protein in the final membrane preparation was determined with the bicinchoninic acid method (BCA; Pierce Chemical Co., Rockford, Ill.). The final protein concentration used for our studies was 300 to 600 μg/mL. Receptor-binding protocols described below were adapted from published procedures. For all assays, the samples, all in duplicate or triplicate, were placed into scintillation vials containing 5.5 mL of scintillation liquid (Ultima Gold; Packard Instrument Co., Inc., Meriden, Conn.) and the retained radioactivity was determined by conventional scintillation spectroscopy with a Beckman TA-6000 scintillation counter. Radio-ligands were purchased from DuPont-NEN (Boston, Mass.).
[^3H]5,7-Dichlorokynurenic acid (5,7-DCKA)-binding assay. The glycine recognition site of the NMDA receptor complex was labeled with the competitive antagonist [^3H]5,7-dichlorokynurenic acid (5,7-DCKA). […]
Data Analysis. The data were analyzed with SigmaPlot 5.0 and SigmaStat 2.0 (Jandel Scientific, Corte Madera, Calif.) software. […]

[2] = target: voltage sensitive sodium channel (neurotoxin receptor Site 2); experiment: [3H]BTX binding assay; settings: rat cortical synaptosomes
[3] = target: T2, CB1 receptor (Homo sapiens, UniProt P21554); experiment: cAMP accumulation in HEK293 cells transfected with AC5, D1AR, CB1R; assay type: cell-based
T2 construct: expressed in transfected cells; host or cells: HEK293 cells (ATCC), calcium phosphate transfection
Description: HEK293 cells were obtained from American Type Culture Collection (Manassas, Va.). Cells were cultured in 225 mL flasks containing 39 mL of MEM containing 10% fetal bovine serum, penicillin (50 μg/mL), streptomycin (50 μg/mL), and neomycin (100 μg/mL). The flasks were maintained in a humidified atmosphere of 95% air and 5% CO2 at about 37° C. Transfection was performed by the method of DNA precipitation with calcium phosphate 1 day after HEK 293 cells were transferred to small flasks (75 mL) at the density of approximately 60 to 80% confluence. Plasmid DNA containing AC5 or AC7 cDNA (11.5 μg), plasmid DNA carrying the human D1A dopamine receptor cDNA (3 μg) and CB1 receptor cDNA (3 μg), and pCMS-EGFP (1 μg) were used for each small flask, which also contained 13 mL of the culture medium. The amount of DNA per flask was adjusted to a total of 26 μg using vector DNA. Transfection efficiency was routinely monitored by observing the expression of enhanced green fluorescent protein (GFP) by an epifluorescence microscope equipped with a filter set (excitation, 480/40 nm; emission, 535/50 nm) and a dichroic mirror (T89002bs; Chroma Technology, Rockingham, Vt.). After transfection, cells were harvested and transferred into 24-well culture plates. The transfected cells were cultured for 1 to 2 days before the cAMP accumulation experiments were carried out.
After labeling and intracellular ATP pool with 3.0 μCi/mL of [2,8-^3H]adenine, cells were incubated in DMEM (0.5 mL/well) without phenol red, buffered to pH 7.1 with 20 mM of 4-(2-hydroxyethyl)-1-piperazineethanesulfonic acid (HEPES) for 30 minutes at 37° C.
To determine the effect of the DCUK-OEt or other compounds on the function of the CB1 receptor, the cells were treated with the phosphodiesterase inhibitor, IBMX (500 μM), for 10 minutes at 37° C., followed by the addition of D1A receptor agonist, dopamine (DA) (1 μM), in the presence of a known CB1 agonist or agonist, plus a CB1 antagonist for 5 minutes. The following agonist and antagonist were used: CB1 receptor agonist, ACEA (10 μM); CB1 receptor antagonist, AM251 (10 μM). In additional reactions, the addition of DA was accompanied by addition of DCUK-OEt (10 μM) or DCUK-OEt together with AM251 (10 μM). In a final set of reactions DCUK-OEt was added with ACEA (10 μM), to assess whether DCUK-OEt acted like a CB1 receptor antagonist. The reactions were terminated by adding 50 μL of 100% (w/v) tricholoroacetic acid. ATP and cAMP were separated through Dowex 50 and neutral alumina columns as is known in the art, and quantified by liquid scintillation counting. [α-^32P]ATP and 8-[^14C]cAMP were added as internal standards to monitor the recovery of ATP and cAMP through column chromatography. Conversion of [^3H] ATP into [^3H]cAMP was calculated as follows: [^3H]cAMP (%)=[^3H]cAMP (cpm)/([^3H]ATP (cpm)+[^3H]cAMP (cpm))·100. [^3H]cAMP (%) values obtained from cells which underwent only the 10-minute IBMX incubation period before the addition of trichloroacetic acid, were used as blanks and these values were subtracted from the values obtained from cells which underwent the 1-minute incubation period with DA in the presence or absence of other agonists/antagonists. Each condition was assayed in triplicate and the whole experimental procedure was repeated 4 times. The ratio of cAMP accumulation was calculated for all treatment groups versus DA treatment group (100%) and the values were averaged among the four batches of experiments.

[4] = target: rat brain type IIA Na+ channel (Nav1.2) (Rattus norvegicus, UniProt P04775); experiment: Whole-cell patch clamp recordings of Na+ currents in CNaIIA-1 cells; assay type: cell-based
[5] = test system: DBA/2 mice; experiment: Audiogenic seizures; assay type: in vivo, mouse; settings: i.p., 100 and 500 mg/kg
Description: Audiogenic Seizures. Male DBA/2J mice (20-22 days old; 8-12 g) were used to evaluate the effects of DCUK-OMe in an animal model of partial seizures. Mice were dosed (i.p.) with vehicle (5% TWEEN 80/0.5% methylcellulose), 100 mg/kg DCUK-OMe, or 500 mg/kg DCUK-OMe, 30 minutes before noise stimulation. Mice were placed into a cylindrical Plexiglas testing chamber (15×50 cm, diameter 3 height) enclosed in a sound-attenuated box. After a 15- to 20-second habituation period, a high-intensity auditory stimulus (ringing doorbell; 12-16 kHz, 109 db) was activated for 30 seconds or until tonic hindlimb extension occurred. The seizure response in these mice is characterized by a progression of a wild running behavior, followed by loss of righting and clonus of the forelimbs, followed by tonic hindlimb extension, and finally respiratory arrest.

[6] = Solubility limit in aqueous assay buffers; assay type: physicochemical; settings: aqueous assay buffers (incubation or bath solutions), aqueous buffer, kinetic from dmso stock, DMSO 0.2 to 1%, read-out: concentrations that could not be tested due to limited solubility in aqueous buffers
Description: Drugs. For all in vitro assays, stock solutions of DCUKA or DCUK-OMe were prepared fresh daily in dimethylsulfoxide (DMSO) then diluted into the incubation or bath solutions with sonication to the desired concentrations for experiments. Due to their limited solubility in aqueous buffers, DCUKA concentrations >300 μM and DCUK-OMe concentrations >100 μM could not be tested. In those assays where high ionic strength buffers were used, i.e., [^3H]batrachiotoxin (BTX) binding in depolarized synaptosomes, concentrations >50 μM could not be tested. The final concentration of DMSO in the assays ranged from 0.2 to 1%. In all assays, drug effects were compared with effects measured in the presence of the identical concentration of DMSO without drug.

[7] = none = no displacement at 100 μM, read-out: IC50 [3H]BTX binding

Chain of rat brain type IIA Na+ channel (Nav1.2) (P04775 whole entry): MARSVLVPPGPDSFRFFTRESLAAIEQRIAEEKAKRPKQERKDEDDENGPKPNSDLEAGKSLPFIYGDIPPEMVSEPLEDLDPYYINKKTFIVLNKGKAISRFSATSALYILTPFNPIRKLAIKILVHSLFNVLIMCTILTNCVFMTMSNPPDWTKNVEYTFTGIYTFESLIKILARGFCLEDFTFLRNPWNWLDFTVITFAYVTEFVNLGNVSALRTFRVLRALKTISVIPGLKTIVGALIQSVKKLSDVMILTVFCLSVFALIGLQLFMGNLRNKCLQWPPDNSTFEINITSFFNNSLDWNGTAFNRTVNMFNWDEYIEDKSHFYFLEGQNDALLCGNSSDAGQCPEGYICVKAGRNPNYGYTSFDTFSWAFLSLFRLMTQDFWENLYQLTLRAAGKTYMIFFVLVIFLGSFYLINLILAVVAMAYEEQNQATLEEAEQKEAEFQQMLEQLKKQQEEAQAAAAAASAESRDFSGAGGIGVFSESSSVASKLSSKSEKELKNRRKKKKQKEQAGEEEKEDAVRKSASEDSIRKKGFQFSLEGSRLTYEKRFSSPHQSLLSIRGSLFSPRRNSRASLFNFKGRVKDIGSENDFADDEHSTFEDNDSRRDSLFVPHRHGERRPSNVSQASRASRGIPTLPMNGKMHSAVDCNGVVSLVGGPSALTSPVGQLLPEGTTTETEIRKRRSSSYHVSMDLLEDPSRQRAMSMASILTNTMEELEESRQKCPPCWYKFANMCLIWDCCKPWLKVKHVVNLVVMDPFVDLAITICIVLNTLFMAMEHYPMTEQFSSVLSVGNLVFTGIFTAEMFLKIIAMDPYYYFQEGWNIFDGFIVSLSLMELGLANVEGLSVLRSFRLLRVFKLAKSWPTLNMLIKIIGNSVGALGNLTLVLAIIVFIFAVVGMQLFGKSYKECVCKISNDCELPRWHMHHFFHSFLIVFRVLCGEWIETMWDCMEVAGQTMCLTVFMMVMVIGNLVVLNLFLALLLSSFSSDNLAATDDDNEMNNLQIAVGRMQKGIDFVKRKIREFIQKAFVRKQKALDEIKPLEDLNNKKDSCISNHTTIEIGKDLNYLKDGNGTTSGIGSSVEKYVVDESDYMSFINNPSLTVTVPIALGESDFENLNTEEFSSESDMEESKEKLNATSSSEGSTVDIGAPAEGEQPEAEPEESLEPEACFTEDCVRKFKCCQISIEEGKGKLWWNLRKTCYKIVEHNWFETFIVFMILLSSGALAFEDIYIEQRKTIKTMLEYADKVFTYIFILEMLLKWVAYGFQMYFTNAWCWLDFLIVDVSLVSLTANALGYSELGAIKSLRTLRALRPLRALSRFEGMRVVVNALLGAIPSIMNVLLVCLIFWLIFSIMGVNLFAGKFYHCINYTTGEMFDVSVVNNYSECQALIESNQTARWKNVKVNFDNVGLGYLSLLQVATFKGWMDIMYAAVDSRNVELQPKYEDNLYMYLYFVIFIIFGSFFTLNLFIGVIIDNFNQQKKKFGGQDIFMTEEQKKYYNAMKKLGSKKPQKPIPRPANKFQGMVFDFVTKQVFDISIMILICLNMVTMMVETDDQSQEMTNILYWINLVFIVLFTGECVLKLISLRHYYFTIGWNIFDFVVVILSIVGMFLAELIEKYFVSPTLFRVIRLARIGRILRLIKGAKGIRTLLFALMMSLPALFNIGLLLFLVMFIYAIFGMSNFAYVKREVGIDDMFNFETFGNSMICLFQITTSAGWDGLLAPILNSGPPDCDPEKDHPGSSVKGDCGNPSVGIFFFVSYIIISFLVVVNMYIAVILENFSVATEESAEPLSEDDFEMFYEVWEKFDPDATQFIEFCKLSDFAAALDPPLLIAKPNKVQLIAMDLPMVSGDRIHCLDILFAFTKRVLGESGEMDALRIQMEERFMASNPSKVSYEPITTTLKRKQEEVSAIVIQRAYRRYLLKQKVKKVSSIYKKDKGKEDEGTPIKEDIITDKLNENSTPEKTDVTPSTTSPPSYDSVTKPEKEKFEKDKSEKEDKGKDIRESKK
T2 sequence (P21554 whole entry): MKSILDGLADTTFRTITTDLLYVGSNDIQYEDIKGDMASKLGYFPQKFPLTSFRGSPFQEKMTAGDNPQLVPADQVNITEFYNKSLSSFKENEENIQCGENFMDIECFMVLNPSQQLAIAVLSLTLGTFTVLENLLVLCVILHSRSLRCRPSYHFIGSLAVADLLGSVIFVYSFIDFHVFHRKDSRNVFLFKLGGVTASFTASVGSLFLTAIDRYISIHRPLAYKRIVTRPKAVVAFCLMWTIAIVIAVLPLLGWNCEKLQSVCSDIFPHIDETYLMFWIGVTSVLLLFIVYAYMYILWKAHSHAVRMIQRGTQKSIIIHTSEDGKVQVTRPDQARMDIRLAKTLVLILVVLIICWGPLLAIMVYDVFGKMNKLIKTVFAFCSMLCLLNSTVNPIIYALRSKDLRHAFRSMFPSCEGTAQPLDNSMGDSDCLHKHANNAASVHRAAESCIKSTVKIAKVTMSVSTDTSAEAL

O=C(O)c1cc(=O)c2c(Cl)cc(Cl)cc2[nH]1 [5,7-DCKA, 5,7-dichlorokynurenic acid, reference compound]
pIC50 [1]: 6.96 | IC50 [3H]BTX binding ([2]; none = no displacement at 100 μM): none

CCCCC/C=C\C/C=C\C/C=C\C/C=C\CCCC(=O)NCCCl [ACEA, reference compound]
effect on DA stimulated cAMP production with AM251 added ([3]; AM251 10 μM): the effect of ACEA was reversed | effect on DA stimulated cAMP production ([3]; dopamine 1 μM, compound 10 μM): reduced cAMP production

NC(=O)N1c2ccccc2C=Cc2ccccc21 [CBZ, carbamazepine, reference compound]
IC50 [3H]5,7-DCKA binding [1]: none | pIC50 ([2]; depolarizing conditions (135 mM KCl), read-out: IC50 [3H]BTX binding under depolarizing conditions (value in parentheses)): 4.25 | pIC50 [2, 7]: 4.15 | pKd [4]: 3.40 | pKi [4]: 4.84

COC(=O)c1cc(NC(=O)N(c2ccccc2)c2ccccc2)c2c(Cl)cc(Cl)cc2n1 [DCUK-OMe, N,N-diphenyl-4-ureido-5,7-dichloro-2-carboxy quinoline methyl ester]
IC50 [3H]5,7-DCKA binding [1]: none | pIC50 [2, 7]: 4.60 | protection against audiogenic seizures [5]: protection against audiogenic seizures | solubility [6]: > 100 µM
